Data reported in paper PMC8160210, “Single tryptophan Y160W mutant of homooligomeric E. coli purine nucleoside phosphorylase implies that dimers forming the hexamer are functionally not equivalent” (Scientific Reports, 2021).

T1: WT E. coli PNP (Escherichia coli, UniProt P0ABP8)
T1 construct: made in house
T1 sequence (P0ABP8 2-239 limits assumed): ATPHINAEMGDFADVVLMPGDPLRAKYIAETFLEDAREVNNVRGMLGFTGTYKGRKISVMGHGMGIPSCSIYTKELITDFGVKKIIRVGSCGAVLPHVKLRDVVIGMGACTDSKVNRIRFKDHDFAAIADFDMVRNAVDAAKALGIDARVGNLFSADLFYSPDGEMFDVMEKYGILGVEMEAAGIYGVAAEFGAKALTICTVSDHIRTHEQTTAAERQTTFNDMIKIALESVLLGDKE

B1: WT E. coli PNP (Escherichia coli K-12) (protein)
chain: T1 sequence (P0ABP8 2-239 limits assumed)
notes: made in house

How the values were obtained:
Y160W PNP mutant [1] = target: T2, Y160W PNP mutant (Escherichia coli, UniProt P0ABP8, Y161W); experiment: Enzymatic specific activity, spectrophotometric assay; format: biochemical, E. coli; set-up: made in house; host or cells: E. coli DH5α-T1; settings: pH 7.0, 50 mM Hepes, 25 °C, 50 mM phosphate; for Enzymatic specific activity relative to WT: Y160W vs WT; for Enzymatic specific activity: Y160W
T2 sequence (P0ABP8 2-239 Y161W): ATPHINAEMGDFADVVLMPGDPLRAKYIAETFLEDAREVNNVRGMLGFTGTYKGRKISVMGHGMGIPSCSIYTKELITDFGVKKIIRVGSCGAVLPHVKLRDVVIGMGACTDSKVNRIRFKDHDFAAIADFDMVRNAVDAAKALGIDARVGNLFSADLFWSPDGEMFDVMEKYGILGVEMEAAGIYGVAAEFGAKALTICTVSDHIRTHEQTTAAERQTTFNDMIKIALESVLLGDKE
Method: (§1) All activity measurements and kinetic studies were done in 50 mM Hepes/HCl buffer pH 7.0 at 25 °C as previously described for the WT E. coli PNP and its active-site mutants, using direct spectrophotometric assay for adenosine, guanosine and 7-methylguanosine as substrates, and a coupled assay with xanthine oxidase in the case of inosine[13],[28],[29]. Activity measurements were performed for each protein sample, before and after each experiment as a control of the state of the protein.

WT E. coli PNP [2] = target: T1, WT E. coli PNP; experiment: as above; format: biochemical; settings: WT PNP (reference = 100); pH 7.0, 50 mM Hepes, 25 °C, 50 mM phosphate
Method: as §1

WT E. coli PNP [3] = target: T1, WT E. coli PNP; set-up: method as in PMID 21672603; settings: pH 7.0, 50 mM Hepes, 25 °C, 50 mM phosphate; cited from earlier work
WT E. coli PNP [4] = target: T1, WT E. coli PNP; set-up: method as in PMID 30337572; settings: m^7Guo as variable substrate, 50 mM phosphate, Michaelis–Menten; cited from earlier work
WT E. coli PNP [5] = target: T1, WT E. coli PNP; experiment: Kinetic studies with variable substrate; format: biochemical; settings: nucleoside as variable substrate, 50 mM phosphate, Michaelis–Menten, pH 7.0, 25 °C
Method: as §1
(§2) The classical Michaelis–Menten equation was fitted to the kinetic curves (i.e. initial rate of the reaction, v0, vs. initial substrate concentration, c0):1 v0c0=Vmax1c0/c0+KM1
(§3) Coefficients a and b express the degree of cooperation between the subunits in a dimer, while constants KM1 and Vmax1 characterize the active sites of the enzyme when the neighbouring site is free.
(§4) A more complex model was used if there was a statistically significant decrease in the residual sum of squares as judged by the F test at 95% confidence level.

Y160W PNP mutant [6] = target: T2, Y160W PNP mutant; settings: nucleoside as variable substrate, 50 mM phosphate, Michaelis–Menten, pH 7.0, 25 °C
Method: Activity measurements were performed for each protein sample, before and after each experiment as a control of the state of the protein.
as §2, §3, §4

[7] = test system: Nc1nc2c(ncn2[C@@H]2O[C@H](CO)[C@@H](O)[C@H]2O)c(=O)[nH]1; experiment: purified protein, by the assay type; settings: other: Y160W, nucleoside as variable substrate, 50 mM phosphate, Michaelis–Menten, pH 7.0, 25 °C
[8] = substrate: Nc1nc2c(ncn2[C@@H]2O[C@H](CO)[C@@H](O)[C@H]2O)c(=O)[nH]1; experiment: Kinetic studies with variable substrate; format: biochemical, E. coli; settings: other: WT, nucleoside as variable substrate, 50 mM phosphate, Michaelis–Menten, pH 7.0, 25 °C
Method: as §1, §2, §3, §4

| Molecule | Enzymatic specific activity relative to WT (Y160W PNP mutant [1]) | Enzymatic specific activity (Y160W PNP mutant [1]) | Enzymatic specific activity relative to WT (WT E. coli PNP [2]) | Enzymatic specific activity (WT E. coli PNP [3]) | further results |
| --- | --- | --- | --- | --- | --- |
| Nc1ncnc2c1ncn2[C@@H]1O[C@H](CO)[C@@H](O)[C@H]1O [Ado, Adenosine] | 112% | 65.6 ± 14.2 U/mg | 100% | 58.5 ± 5.9 U/mg | – |
| Nc1nc2c(ncn2[C@@H]2O[C@H](CO)[C@@H](O)[C@H]2O)c(=O)[nH]1 [Guo, Guanosine] | 60% | 36.2 ± 2.0 U/mg | 100% | 60.4 ± 6.7 U/mg | – |
| O=c1[nH]cnc2c1ncn2[C@@H]1O[C@H](CO)[C@@H](O)[C@H]1O [Ino, Inosine] | 88% | 91.1 ± 8.9 U/mg | 100% | 103.2 ± 4.0 U/mg | – |
| C[n+]1cn([C@@H]2O[C@H](CO)[C@@H](O)[C@H]2O)c2nc(N)[nH]c(=O)c21 [m^7Guo, 7-Methylguanosine] | 108% | 23.2 ± 1.2 U/mg | 100% | 21.4 ± 1.6 U/mg | Km (WT E. coli PNP [4]): 27.2 µM; Vmax (WT E. coli PNP [5]): 22.7 ± 0.3 U/mg; Km (Y160W PNP mutant [6]): 71.3 ± 3 µM; Vmax (Y160W PNP mutant [6]): 21 ± 1 U/mg |
| Y160W PNP mutant (Escherichia coli K-12; Y161W) | – | – | – | – | Km [7]: 128 ± 2 µM; Vmax [7]: 42.8 ± 0.3 U/mg |
| B1 | – | – | – | – | Km [8]: 28 ± 4 µM; Vmax [8]: 51.1 ± 2.3 U/mg |
